Experimental findings from patent publication US20230076977A1, “UTROPHIN UPREGULATION COMPOUNDS FOR DUCHENNE MUSCULAR DYSTROPHY THERAPY” (THE TRUSTEES OF THE UNIVERSITY OF PENNSYLVANIA, priority 2020, published 2023) are described below.

What all share (format): cell-based
Experiment [1] relates to 5′- and 3′-UTRs of human utrophin. Description: Screening assay: C2C12 stable reporter line, CMV-driven luciferase flanked by utrophin 5′ and 3′ UTRs. Particulars: for Upper-lower limits scoren: difference between upper and lower boundaries of the fitted dose-response screening curve; for Fold diff: fold difference between the EC50s of screening and counterscreening. As to the method: (§1) The construct for the HTS assay was generated by cloning the 5′- and 3′-UTRs of human utrophin into pGL4:50-hygro (Promega, Madison, Wis.) at the 5′ and 3′ of the luciferase coding sequence and has been described previously by Moorwood. […] For the counterscreening assay, the pGL4:50-hygro plasmid was used alone. Low passage C2C12 cells obtained from ATCC were transfected with either constructs, stably selected with 500 μg/mL hygromycin and subcloned using two rounds of serial dilutions to isolate single cell-derived colonies in a 96 wells plate format. […] The selected clones were cultured in presence of 100 μg/mL hygromycin B and were transferred to the HTS Facility at the University of Pennsylvania for implementation into a 384-wells format suitable for HTS.
(§2) The construct for generating the screening C2C12 cell line carrying the 5′ and 3′UTR of the human utrophin gene is described by Moorwood. […] Some compounds could increase light emission independently from the 5′ and 3′UTR regions, i.e., by activating the CMV promoter or increasing overall mRNA synthesis. Therefore, in order to distinguish such compounds, a counterscreening cell line stably expressing only the CMV-driven luciferase gene was generated (FIG. 1A). To determine optimal conditions for the implementation in a 384-wells high-throughput format, evaluated were DMSO tolerance, optimal cell density and incubation time (FIG. 5A-5C).
(§3) A first criterion for evaluating the performance of the selected hits was whether their activity was dose-dependent. After performing a dose-response analysis (5 nM to 10 μM) of each hit in the screening cell line, a clustering approach was applied (complete linkage with Euclidean distance measurement) to highlight similarities between compounds profiles. […] By modeling each dose-response trace with a 4-parameter logistic model applied to the Z— score values (FIG. 2B), the EC50 of each molecule was calculated.
(§4) Cells were allowed to attach overnight at 37° C., 5% CO2 in a humidified chamber. […] Compounds were added to a final concentration of 1 μM and 100 nM in 0.2% DMSO. Columns 1 and 23 were treated with 0.2% DMSO (negative control). Columns 2 and 24 were treated with 100 nM Panobinostat (positive control). Cells were incubated for 24 hours at 37° C., 5% CO2. […] Luminescence was measured on an EnVisionXcite Multilabel Plate Reader (PerkinElmer), using ultrasensitive luminescence measurement technology.
(The purpose of a counterscreen is to sort out artefacts and off-target activity.)

Experiment [2] relates to utrophin protein in C2C12 cells. The experiment in a line: Utrophin western blot in C2C12 cells (endogenous protein expression). Particulars: for Utrophin protein levels, fold increase: 1 μM, 24 hours, normalized to tubulin, vs 0.1% DMSO control; for utrophin protein levels in a separate assay (data not shown): hits with H2LPS equal to 0. As to the method: The 10 highest scoring hits were selected from this subset for performing in vitro validation. C2C12 cells were treated with 1 μM concentrations of the selected hits for 24 hours, followed by western blot evaluation of utrophin levels as an orthogonal assay for endogenous protein expression. […] Panobinostat, an FDA-approved non-selective HDAC inhibitor for cancer treatment, increased utrophin levels by 1.9-fold. […] AR-42 (S2244), another HDAC inhibitor with proven preclinical efficacy in contrasting cancer-induced cachexia, increased utrophin by 2.3-fold and had the second highest H2LPS. Consistent with the calculated HPS, the highest scoring hit, TSA (S1045), had also the highest magnitude of protein upregulation (3.9-fold) followed by PCI-24781 (S1090; 3.7-fold). Importantly, high H2LPS was generally correlated with confirmation in WB assays (FIG. 2E).
Total RNA was extracted from TA muscle samples with RNAeasy kit (Qiagen, USA) and reverse transcribed with random hexamers. qPCR was performed using Taqman probes for Utrophin (Assay ID Mm01168846_ml) and β-actin. Muscle tissue samples were lysed with TNEC buffer (50 mM Tris-HCl, pH 8.0; 150 mMNaCl; 1% NP40; 2 mM EDTA) buffer containing complete protease inhibitor cocktail (Roche, Basel, Switzerland). C2C12 cells were treated for 24 h with 1 μM concentrations of compounds from a fresh batch (3 wells for each compound), and cell samples were lysed with RIPA buffer with protease inhibitor cocktail. The experiment was repeated three independent times. 50-75 μg of total proteins from muscle tissues, or 4 μg of cell protein extracts, were resolved on a 3-8% Tris-Acetate gradient gel (NuPage; Invitrogen), transferred to PDVF or nitrocellulose membranes and mouse monoclonal anti-utrophin antibody MANCHO3 clone 8A4 (developed by Glenn E. Morris and obtained from the Developmental Studies Hybridoma Bank, Iowa) or a custom-made anti-UtrophinA rabbit polyclonal antibody (muscle tissue samples) generated and described previously by Chakkalakal et al., Nucleic Acids Res. 36, 826-838 (2008), which is incorporated herein by reference in its entirety.
TSA is a broad-spectrum HDAC inhibitor. […] To further validate in vitro the dose-dependent capacity of TSA to upregulate utrophin protein, C2C12 cells were treated for 24 hours with increasing concentrations of TSA (from 1 nM to 10 μM) (FIG. 3B). Consistent with the single-dose western blot validation experiments, utrophin protein levels were increased 4.3 times by 1 μM TSA. […] Some cytotoxicity was evident for TSA concentrations higher than 1 μM.

Experiment [3] relates to CMV-driven luciferase gene. The experiment in a line: Counterscreening assay: C2C12 line stably expressing only the CMV-driven luciferase gene. Particulars: for luciferase activity in the counterscreening assay: dose-response 5 nM to 10 μM, FIG. 6. As to the method: as §1, §2, §3, §4
[4] abbreviates: C2C12, 4-parameter logistic fit of Z-scores, 24 h, no unit in table (0.013 = 13 nM), read-out: EC50 screen.
The mark [5] stands for this setting: C2C12, read-out: EC50 score (1 to 4).
The mark [6] stands for this setting: 4-parameter logistic fit of Z-scores, 24 h, no unit in table (0.013 = 13 nM), read-out: EC50 screen.

Where two headings read alike, the source gives them in different places. Starred links: 1 amine or outer side, 2 acyl side, 3 side chain; linkers in the order of their positions; H or OH if unused. Positions of bridges follow the written chain, without caps; N, C: chain ends. Non-standard residues stand in square brackets, D forms with d. Residues, ends and D or L forms follow the SMILES beside them. Chains are numbered I, II in the order given. Hexamethylenediamine = C(CCCN[*:2])CCN[*:1]; Dip = N[C@H](C(=O)O)C(c1ccccc1)c1ccccc1; Chg = N[C@H](C(=O)O)C1CCCCC1; NMeA = CN[C@@H](C)C(=O)O

As for `CC(C)[C@H](C(=O)Nc1ccc(C(=O)NO)cc1)c1ccccc1` [AR-42], the half-maximal effective concentration (EC50) (commonly the midpoint of the concentration-response curve) in experiment [1] (setting [4]) came to 369 nM. In experiment [1] (setting [5]), the 50% effective concentration (EC50) lay in the range of 100 to 1000 nM. In experiment [1], this molecule registered an Upper-lower limits scoren of 59.94 and a Fold diff of 14.72. For the same molecule, the “Utrophin protein levels, fold increase” value in experiment [2] was 2.3 fold.
On to `CC(=O)O/N=C1/C(=C2/C(=O)Nc3cc(Br)ccc32)Nc2ccccc21` [BIO-acetoxime], for which, in experiment [1] (setting [6]), the EC50 is 330 nM. In experiment [1], this molecule yielded an Upper-lower limits scoren of 13.04 and a Fold diff of 0.65.
The molecule `O=C1Nc2cc(Br)ccc2/C1=C1/Nc2ccccc2/C1=N\O` [BIO] gave an Upper-lower limits scoren in experiment [1] of 12.
Consider `CN[C@@H](C)C(=O)N[C@H](C(=O)N1CCC[C@H]1C(=O)N[C@H](C(=O)NCCCCCCNC(=O)[C@@H](NC(=O)[C@@H]1CCCN1C(=O)[C@@H](NC(=O)[C@H](C)NC)C1CCCCC1)C(c1ccccc1)c1ccccc1)C(c1ccccc1)c1ccccc1)C1CCCCC1` [BV-6] (I: H-[NMeA][Chg]P[Dip] / II: H-[NMeA][Chg]P[Dip]; linker I:C-II:C via Hexamethylenediamine), for which, in experiment [1] (setting [6]), the concentration for a half-maximal effect (EC50) stood at 99 nM. In experiment [1], the Upper-lower limits scoren came out at 7.00 and the Fold diff result is on record as “High”.
As to `O=C(/C=C/c1cccc(S(=O)(=O)Nc2ccccc2)c1)NO` [Belinostat], the EC50 in experiment [1] (setting [4]) turned out to be 342 nM. In addition, the EC50 in experiment [1] (setting [5]) is 100 to 1000 nM. Besides, in experiment [1], the Upper-lower limits scoren is 43.41 and the Fold diff result is listed as “High”.
Taken in the same sequence, the figures for `C#Cc1cccc(Nc2ncnc3cc(OC)c(OCCCCCCC(=O)NO)cc23)c1` [CUDC-101] were 1990 nM, above 1000 nM, 34.34 and “High”.
For the molecule `COc1ccc(-c2nc(N3CCOCC3)c3sc(CN(C)c4ncc(C(=O)NO)cn4)cc3n2)cn1` [CUDC-907], the EC50 in experiment [1] (setting [5]) was below 50 nM. Also, the “luciferase activity in the counterscreening assay” value in experiment [3] is “significant luciferase activity”.
Regarding `CCN(CC)Cc1ccc2cc(COC(=O)Nc3ccc(C(=O)NO)cc3)ccc2c1` [Givinostat], the EC50 in experiment [1] (setting [4]) is 269 nM. In experiment [1] (setting [5]), the EC50 lay within 100 to 1000 nM. In experiment [1], this molecule yielded an Upper-lower limits scoren of 46.59 and a Fold diff of 18.69. Also, in experiment [2], the “Utrophin protein levels, fold increase” value was found to be 2.2 fold.
With `O=C1Cc2c([nH]c3ccc(Br)cc23)-c2ccccc2N1` [Kenpaullone], the EC50 is 34 nM in experiment [1] (setting [4]) and below 50 nM in experiment [1] (setting [5]). Also, in experiment [1], the Upper-lower limits scoren is recorded as 12.92. The Fold diff in experiment [1] stood at 6.97.
Turning to `O=C(/C=C/c1ccc(CN(CCO)CCc2c[nH]c3ccccc23)cc1)NO` [LAQ824, Dacinostat], the “utrophin protein levels in a separate assay (data not shown)” value (from here on “utrophin protein levels … (data not shown)”) in experiment [2] was “failed to increase utrophin protein levels”.
Turning to `Cc1cc(C)cc(C(=O)NOCCCCCC(=O)NO)c1` [LMK-235], the EC50 in experiment [1] (setting [4]) was 683 nM; in experiment [1] (setting [5]) it was 100 to 1000 nM. The molecule further came in with an Upper-lower limits scoren in experiment [1] of 43.40. The Fold diff result in experiment [1] is given as “High”.
For `CN(C)c1ccc(C(=O)NCCCCCCC(=O)NO)cc1` [M344], the concentration for a half-maximal effect (EC50) in experiment [1] (setting [6]) is 3220 nM. In addition, in experiment [1], the Upper-lower limits scoren is 74.15 and the Fold diff turned out to be 2.54.
As for `Cc1cc(O)c(-c2ccc([C@@H](C)CN)cc2)c2c1[nH]c(=O)c1sccc12.Cl` [OTS514 hydrochloride], in experiment [2], the “utrophin protein levels … (data not shown)” value is given as “failed to increase utrophin protein levels”.
Regarding `CCCCc1nc2cc(/C=C/C(=O)NO)ccc2n1CCN(CC)CC` [Pracinostat], the results for the EC50 in experiment [1] (setting [4]) and in experiment [1] (setting [5]) were 558 nM and 100 to 1000 nM, respectively. The Upper-lower limits scoren in experiment [1] came out at 56.37. In experiment [1], this molecule returned a Fold diff of 59.25.
Take `Cn1cc(CNCC2CCN(c3ncc(C(=O)NO)cn3)CC2)c2ccccc21` [Quisinostat]: the “utrophin protein levels … (data not shown)” value in experiment [2] was “failed to increase utrophin protein levels”.
With `O=C(CCCCCN1C(=O)c2cccc3cccc(c23)C1=O)NO` [Scriptaid], the EC50 in experiment [1] (setting [4]) worked out at 2440 nM. Further, the EC50 in experiment [1] (setting [5]) is above 1000 nM. In experiment [1], the Upper-lower limits scoren stood at 62.01 and the Fold diff entry is listed as “High”.
In the case of `CC(C)Oc1ccc2c(=O)c(-c3ccccc3)coc2c1` [ipriflavone], the concentration for a half-maximal effect (EC50) in experiment [1] (setting [5]) was below 50 nM.
Abexinostat [PCI-24781]: the concentration giving a half-maximal response (EC50) in experiment [1] (setting [6]) came out at 138 nM. In experiment [1], this molecule gave an Upper-lower limits scoren of 44.18 and a Fold diff of 33.72. The “Utrophin protein levels, fold increase” value in experiment [2] was 3.7 fold.
Regarding Panobinostat, the half-maximal effective concentration (EC50) in experiment [1] (setting [6]) was found to be 13 nM. In experiment [1] (FIG. 8, Panobinostat-treated vs untreated stable C2C12 cells), the “increase of signal activity over basal signal, primary screening” value is given as 4-6 fold. In experiment [1] (FIG. 8, basal about 20,000 RLUs), the “signal (S), primary screening” value is given as “about 100,000 RLUs”. In experiment [1], the Upper-lower limits scoren turned out to be 22.06 and the Fold diff was 9.21. Further, the “activity in library screen (threshold 22.07% NPAc)” value in experiment [1] (screened at 0.1 μM and 1 μM, 24 h) is reported as “active at both concentrations”. The “increase over the basal signal, counterscreening” value in experiment [3] (FIG. 8, Panobinostat-treated vs untreated) was 100 fold. The “signal (S), counterscreening” value in experiment [3] (FIG. 8, basal about 400 RLUs) is on record as 25-40,000 RLUs. The “luciferase activity in the counterscreening assay” value in experiment [3] is “significant luciferase activity”. The “Utrophin protein levels, fold increase” value in experiment [2] amounted to 1.9 fold.
